According to ChEMBL document CHEMBL1143604, “Structure-activity relationship studies optimizing the antiproliferative activity of novel cyclic somatostatin analogues containing a restrained cyclic beta-amino acid” (J Med Chem, 2005):

These compounds were tested on A-431 (assay: Antiproliferative activity against human epidermiod carcinoma A431 cells).
Type: functional, cell-based
In the case of CCCC[C@@H]1NC(=O)[C@@H](Cc2c[nH]c3ccccc23)NC(=O)[C@H](Cc2ccc(O)cc2)NC(=O)[C@H]2C[C@@H](C)C=C(C)[C@H]2NC(=O)[C@H]([C@@H](C)OC(c2ccccc2)(c2ccccc2)c2ccccc2)NC1=O, the IC50 is reported as 5 µM.
CCCC[C@@H]1NC(=O)[C@@H](Cc2c[nH]c3ccccc23)NC(=O)[C@H](Cc2ccc(O)cc2)NC(=O)[C@@H]2CCCN2C(=O)[C@H](Cc2ccccc2)NC(=O)[C@H]([C@@H](C)O)NC1=O gave an IC50 of 32 µM.
For CCCC[C@@H]1NC(=O)[C@@H](Cc2c[nH]c3ccccc23)NC(=O)[C@H](Cc2ccc(O)cc2)NC(=O)[C@H]2C[C@@H](C)C=C(C)[C@H]2NC(=O)[C@H]([C@@H](C)O)NC1=O, the IC50 was greater than 100 µM.
Work on CCCC[C@@H]1NC(=O)[C@@H](Cc2c[nH]c3ccccc23)NC(=O)[C@@H](Cc2ccc(O)cc2)NC(=O)[C@H]2C[C@@H](C)C=C(C)[C@H]2NC(=O)[C@H]([C@@H](C)OC(c2ccccc2)(c2ccccc2)c2ccccc2)NC1=O yielded an IC50 of 6 µM.
For CCCC[C@@H]1NC(=O)[C@H](Cc2c[nH]c3ccccc23)NC(=O)[C@@H](Cc2ccc(O)cc2)NC(=O)[C@@H]2CCCN2C(=O)[C@H](Cc2ccccc2)NC(=O)[C@@H]([C@@H](C)OC(c2ccccc2)(c2ccccc2)c2ccccc2)NC1=O, the IC50 was 26 µM.
In the case of C[C@@H](O)[C@@H]1NC(=O)C(CCCCN)NC(=O)[C@@H](Cc2c[nH]c3ccccc23)NC(=O)C(Cc2ccccc2)NC(=O)[C@@H]2CCCN2C(=O)C(Cc2ccccc2)NC1=O (single isomer, unassigned), the IC50 is reported as greater than 50 µM.
